From US6855829B2, “3-fluoro-2-oxindole modulators of KCNQ potassium channels and use thereof in treating migraine and mechanistically related disease” (Bristol-Myers Squibb Company, priority 2001, dated 2005)
Entries after “also recorded” stand apart in the source; their conditions may differ. Where two headings read alike, the source gives them in different places. Blank lines part the entries; values can stand above or below the molecule they belong to.

Key:
[1] = system: SSS-stimulated field responses recorded in the trigeminal nucleus caudalis; assay: SSS-stimulated trigeminal field response (in vivo model of migraine); design: species or system rat
Protocol: (§1) Male Long-Evans rats (Harlan, 250-400 g) were used in the experiments described in this example. Prior to testing, rats were allowed access to food and water ad libitum and were maintained on a 12:12 hours light/dark cycle. Rats were group housed in an Association for Assessment and Accreditation of Laboratory Animal Care (A.A.A.L.A.C.) accredited facility and cared for in strict compliance with all applicable regulations.
SSS stimulation and recording were performed in a manner consistent with previously published methods using cat (K. L. Hoskin et al., 1996, Brain, 119:101-108) and rat (M. J. Cumberbatch et al., 1998, Eur. J. Pharmacol., 362:43-46; and M. J. Cumberbatch et al., 1999, Br. J. Pharmacol., 126:1478-1486) animal models. Rats were anesthetized with 1.2 g/kg i.p. urethane (#U-2500, Sigma Chemical Company, St. Louis, Mo.) and given supplemental urethane as needed. In the case of intravenous (i.v.) drug administration (e.g., (+)-3-[5-Chloro-2-[(2,2,2-trifluoroethoxy)phenyl]-1,3-dihydro-3-fluoro-6-(trifluoromethyl)-2H-indol-2-one), the jugular veins of the rats were cannulated using sylastic tubing pre-filled with vehicle. […]
Stimulated field responses were recorded in the trigeminal nucleus caudalis using Teflon coated stainless-steel microelectrodes (5 MΩ impedance, Frederick Haer, Brunswick, Me.) and amplified and filtered (0.1 Hz-10 kHz) using a differential amplifier (#IsoDAM8, World Precision Instruments, Sarasota, Fla.). […]
Three baseline measures (i.e., 100% of control), each consisting of 100 evoked trigeminal field potentials, were sampled prior to drug injection. […] Following injection of test substances, data were sampled for 1 hour, averaged into 5 minute bins (90 evoked potentials) and expressed as a percent change from average baseline values for the purposes of statistical analysis. Data were analyzed using repeated measures analyses of variance comparing vehicle and drug effects. […]

[2] = system: cortical spreading depression; assay: Cortical spreading depression elicited by KCl application; type: in vivo; conditions: rat, 0.1, 1.0, 5.0, 10.0 and 30.0 mg/kg i.v. vs vehicle (overall ANOVA p<0.001)
Protocol: as §1
Rats were anesthetized with urethane anesthesia (1.2 g/kg i.p.), implanted with a jugular vein catheter for drug injections, and placed in a stereotaxic frame. The skull was exposed and a small hole (approximately 2 mm by 3 mm) was drilled in the skull rostral to the lambdoid suture using a microdrill and steel burr creating a “well”. The dura was disrupted and a drop of mineral oil was placed in this well. Crystalline KCl was later applied to the well for 10 minutes to elicit spreading depression. Typically, this application produced a long-lasting series of spreading depressions.
Two additional holes were placed in the skull unilaterally at 4 and 8 mm rostral to the application hole. Silver wire electrodes were placed in these latter holes and secured to the skull using acrylic cement. […]
Differences between control and drug conditions were assessed using analyses of variance (ANOVA) and appropriate post-hoc analyses. […]

murine KCNQ2 (mKCNQ2) = murine KCNQ2 (mKCNQ2) (Mus musculus, UniProt Q9Z351); assay: Two-electrode voltage clamp, Xenopus oocyte expressed mKCNQ2-mediated outward currents; type: cell-based; conditions: 10 μM, Xenopus oocytes
Sequence of murine KCNQ2 (mKCNQ2) (Q9Z351 whole entry): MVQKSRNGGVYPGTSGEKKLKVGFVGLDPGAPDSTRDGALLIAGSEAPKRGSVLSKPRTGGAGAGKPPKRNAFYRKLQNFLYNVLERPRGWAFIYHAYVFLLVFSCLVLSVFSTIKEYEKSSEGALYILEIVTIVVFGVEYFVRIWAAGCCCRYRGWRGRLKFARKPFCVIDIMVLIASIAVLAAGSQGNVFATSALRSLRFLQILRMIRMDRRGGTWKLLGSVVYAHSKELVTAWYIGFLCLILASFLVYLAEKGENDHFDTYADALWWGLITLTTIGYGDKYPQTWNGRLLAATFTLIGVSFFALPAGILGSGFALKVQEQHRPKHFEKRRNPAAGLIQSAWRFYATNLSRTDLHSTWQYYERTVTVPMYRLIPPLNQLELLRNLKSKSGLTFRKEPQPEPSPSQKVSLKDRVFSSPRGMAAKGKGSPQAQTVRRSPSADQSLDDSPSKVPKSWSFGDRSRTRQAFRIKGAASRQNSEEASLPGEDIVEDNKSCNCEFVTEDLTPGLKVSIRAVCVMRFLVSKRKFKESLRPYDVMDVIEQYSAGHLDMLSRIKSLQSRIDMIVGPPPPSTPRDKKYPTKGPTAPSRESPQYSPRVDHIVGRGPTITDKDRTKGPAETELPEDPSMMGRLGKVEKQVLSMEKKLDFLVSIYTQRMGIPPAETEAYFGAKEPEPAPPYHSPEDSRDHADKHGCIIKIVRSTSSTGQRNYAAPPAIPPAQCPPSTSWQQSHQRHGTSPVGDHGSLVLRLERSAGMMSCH
Protocol: (§2) The ability of the compounds described herein to open KCNQ channels and increase whole-cell outward (K^+) KCNQ-mediated currents was assessed under voltage-clamp conditions by determining their ability to increase cloned […] KCNQ2 (mKCNQ2)-mediated, heteromultimeric murine KCNQ2/3 (mKCNQ2/3)-mediated, and heterologous human KCNQ5 (hKCNQ5)-mediated outward currents expressed in Xenopus oocytes. Oocytes were prepared and injected using standard techniques; each oocyte was injected with approximately 50 nl of mKCNQ2, or hKCNQ5 cRNA. In the case of mKCNQ2/3 heteromultimeric channel expression, equal amounts (25-50 nL) of each cRNA were co-injected.
(§3) Following injection, oocytes were maintained at 17° C. in ND96 medium containing (in mM): NaCl, 90; KCl, 1.0; CaCl2, 1.0; MgCl2, 1.0; HEPES, 5.0; pH 7.5. Horse serum (5%) and penicillin/streptomycin (5%) were added to the incubation medium. Recording commenced 2-6 days following mRNA injection. […]
(§4) Frog (Xenopus laevis) oocytes were impaled with electrodes (1-2 MΩ) and standard 2-electrode voltage clamp techniques were employed to record whole-cell membrane currents. […] Compounds were evaluated at a single concentration (10 or 20 μM), and the effect of the selected compounds of Formula I on KCNQ2 current was expressed as the percent of control current. […]

human KCNQ5 (hKCNQ5) = human KCNQ5 (hKCNQ5) (Homo sapiens, UniProt Q9NR82); assay: Two-electrode voltage clamp, Xenopus oocyte-expressed hKCNQ5-mediated outward currents; type: cell-based; conditions: Xenopus oocytes, n=3, single concentration (10 or 20 μM)
Sequence of human KCNQ5 (hKCNQ5) (Q9NR82 whole entry): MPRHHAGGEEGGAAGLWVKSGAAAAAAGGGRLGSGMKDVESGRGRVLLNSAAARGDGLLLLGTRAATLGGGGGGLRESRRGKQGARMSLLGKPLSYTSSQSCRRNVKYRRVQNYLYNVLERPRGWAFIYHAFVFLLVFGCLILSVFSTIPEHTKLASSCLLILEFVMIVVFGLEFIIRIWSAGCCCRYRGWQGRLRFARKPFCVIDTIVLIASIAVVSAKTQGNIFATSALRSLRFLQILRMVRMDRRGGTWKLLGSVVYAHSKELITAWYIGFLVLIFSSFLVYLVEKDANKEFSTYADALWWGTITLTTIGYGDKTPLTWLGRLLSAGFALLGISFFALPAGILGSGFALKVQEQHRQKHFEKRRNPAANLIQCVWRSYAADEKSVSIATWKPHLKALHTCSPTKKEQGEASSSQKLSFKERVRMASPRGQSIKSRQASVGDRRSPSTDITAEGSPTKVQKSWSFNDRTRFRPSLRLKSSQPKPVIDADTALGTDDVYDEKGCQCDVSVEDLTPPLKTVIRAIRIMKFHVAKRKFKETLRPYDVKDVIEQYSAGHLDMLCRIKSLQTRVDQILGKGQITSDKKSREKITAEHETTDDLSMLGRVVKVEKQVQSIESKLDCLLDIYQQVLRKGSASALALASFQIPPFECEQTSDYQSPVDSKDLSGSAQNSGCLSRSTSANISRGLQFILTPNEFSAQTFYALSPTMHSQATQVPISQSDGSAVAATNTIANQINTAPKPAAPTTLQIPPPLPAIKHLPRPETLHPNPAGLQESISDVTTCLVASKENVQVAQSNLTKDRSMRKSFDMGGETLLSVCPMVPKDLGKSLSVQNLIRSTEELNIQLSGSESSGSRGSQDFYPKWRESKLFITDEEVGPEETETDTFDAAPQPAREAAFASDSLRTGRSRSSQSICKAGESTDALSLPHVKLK
Protocol: as §2, §3, §4

[3] = system: SSS-stimulated trigeminal activity; conditions: cited from earlier work

increase of KCNQ2 current over the KCNQ2 current in controls (murine KCNQ2 (mKCNQ2)): > 150%
human KCNQ5-mediated outward currents, % of control (human KCNQ5 (hKCNQ5)): 157.4+/−6.0 % of control
Structure (SMILES): O=C1Nc2cc(C(F)(F)F)ccc2C1(F)c1cc(Cl)ccc1OCC(F)(F)F (single isomer, unassigned; (+)) [Compound 1]
decrease in trigeminal field potentials from control amplitude ([1]; rat, 50 mg/kg i.v. (highest dose)): 86.7±1.67%
effect on SSS-stimulated trigeminal field response ([1]; rat, doses 0.1, 1.0, 10.0, 30.0 and 50.0 mg/kg i.v., vs vehicle (p<0.01 in all cases; overall ANOVA p<0.001)): dose-dependent reduction; also recorded: significant reduction; also recorded: dose-dependent decrease
number of spreading depressions produced by a single 10 min KCl application [2]: significant reduction

Structure (SMILES): O=C(NCc1ccc(C(F)(F)F)cc1)c1cnc(N2CCCC2)nc1C(F)(F)F [Compound 2, 2-(Pyrrolidin-1-yl)-4-(trifluoromethyl)-N-[[4-(trifluoromethyl)phenyl]methyl]pyrimidine-5-carboxamide]
effect on SSS stimulation evoked trigeminal field potential amplitude ([1]; urethane anesthetized rats, 1 mg/kg i.v.): statistically significant (p=0.005) decrease

Structure (SMILES): CN1C[C@H](C(=O)N[C@]2(C)O[C@@]3(O)[C@@H]4CCCN4C(=O)[C@H](Cc4ccccc4)N3C2=O)C[C@@H]2c3cccc4[nH]cc(c34)C[C@H]21 [dihydroergotamine]
physiological measures of SSS-stimulated trigeminal activity ([3]; literature reports): decrease

Structure (SMILES): CNS(=O)(=O)CCc1ccc2[nH]cc(C3CCN(C)CC3)c2c1 [naratriptan]
physiological measures of SSS-stimulated trigeminal activity ([3]; literature reports): decrease

Structure (SMILES): CN(C)CCc1c[nH]c2ccc(Cn3cncn3)cc12 [rizatriptan]
physiological measures of SSS-stimulated trigeminal activity ([3]; literature reports): decrease

Structure (SMILES): CNS(=O)(=O)Cc1ccc2[nH]cc(CCN(C)C)c2c1 [sumatriptan]
physiological measures of SSS-stimulated trigeminal activity ([3]; following blood-brain-barrier disruption, literature report): decrease

Structure (SMILES): CN(C)CCc1c[nH]c2ccc(C[C@H]3COC(=O)N3)cc12 [zolmitriptan]
physiological measures of SSS-stimulated trigeminal activity ([3]; literature reports): decrease
